Results from ChEMBL document CHEMBL3045453, “Novel malyngamide structural analogs: synthesis and biological evaluation” (Med Chem Res, 2013).

Tested on: PC-3
Assay: Cytotoxicity against Homo sapiens (human) PC3 cells assessed as growth inhibition after 48 hr by trypan blue exclusion assay
Assay type: functional, cell-based
Settings: PC-3, 48 h
In the case of `CCCCCCC[C@@H](C/C=C/CCC(=O)NCC(C)C)OC`, the IC50 is reported as over 100 µM.
For `CCCCCCC[C@@H](C/C=C/CCC(=O)NCc1ccccc1)OC`, the IC50 was over 100 µM.
With `CCCCCCC[C@H](C/C=C/CCC(=O)NCCc1ccccc1)OC` [PHENETHYL(7R,4E)-METHOXYTETRADECENAMIDE] the IC50 was over 100 µM.
`CCCCCCC[C@H](O)C/C=C/CCC(=O)N1CCCC1` showed an IC50 of over 100 µM.
Molecule `CCCCCCC[C@H](C/C=C/CCC(=O)N1CCCCC1)OC` has an IC50 of over 100 µM.
In the case of `CCCCCCC[C@H](C/C=C/CCC(=O)N1CCCC1)OC`, the IC50 is reported as over 100 µM.
In the case of `CCCCCCC[C@@H](C/C=C/CCC(=O)NCc1ccc(C(F)(F)F)cc1)OC`, the IC50 is reported as over 100 µM.
`CCCCCCC[C@@H](C/C=C/CCC(=O)N1CCCC1)OC` gave an IC50 of over 100 µM.
In the case of `CCCCCCC[C@@H](C/C=C/CCC(=O)Nc1ccc(Cl)cc1)OC`, the IC50 is reported as over 100 µM.

Tested on: IMR-32
Assay: Cytotoxicity against Homo sapiens (human) IMR32 cells assessed as growth inhibition after 48 hr by trypan blue exclusion assay
Assay type: functional, cell-based
Settings: IMR-32, 48 h
`CCCCCCC[C@@H](C/C=C/CCC(=O)NCC(C)C)OC` showed an IC50 of over 100 µM.
`CCCCCCC[C@@H](C/C=C/CCC(=O)NCc1ccccc1)OC` showed an IC50 of over 100 µM.
With `CCCCCCC[C@H](C/C=C/CCC(=O)NCCc1ccccc1)OC` [PHENETHYL(7R,4E)-METHOXYTETRADECENAMIDE] the IC50 was over 100 µM.
`CCCCCCC[C@H](O)C/C=C/CCC(=O)N1CCCC1` gave an IC50 of over 100 µM.
Molecule `CCCCCCC[C@H](C/C=C/CCC(=O)N1CCCCC1)OC` has an IC50 of over 100 µM.
`CCCCCCC[C@H](C/C=C/CCC(=O)N1CCCC1)OC` gave an IC50 of over 100 µM.
Molecule `CCCCCCC[C@@H](C/C=C/CCC(=O)NCc1ccc(C(F)(F)F)cc1)OC` has an IC50 of over 100 µM.
For `CCCCCCC[C@@H](C/C=C/CCC(=O)N1CCCC1)OC`, the IC50 was over 100 µM.
`CCCCCCC[C@@H](C/C=C/CCC(=O)Nc1ccc(Cl)cc1)OC` showed an IC50 of over 100 µM.

Tested on: HeLa
Assay: Cytotoxicity against Homo sapiens (human) HeLa cells assessed as growth inhibition after 48 hr by trypan blue exclusion assay
Assay type: functional, cell-based
Settings: not given
Molecule `CCCCCCC[C@@H](C/C=C/CCC(=O)NCC(C)C)OC` has an IC50 of over 100 µM.
For `CCCCCCC[C@@H](C/C=C/CCC(=O)NCc1ccccc1)OC`, the IC50 was over 100 µM.
`CCCCCCC[C@H](C/C=C/CCC(=O)NCCc1ccccc1)OC` [PHENETHYL(7R,4E)-METHOXYTETRADECENAMIDE] showed an IC50 of over 100 µM.
Work on `CCCCCCC[C@H](O)C/C=C/CCC(=O)N1CCCC1` yielded an IC50 of over 100 µM.
In the case of `CCCCCCC[C@H](C/C=C/CCC(=O)N1CCCCC1)OC`, the IC50 is reported as over 100 µM.
With `CCCCCCC[C@H](C/C=C/CCC(=O)N1CCCC1)OC` the IC50 was over 100 µM.
For `CCCCCCC[C@@H](C/C=C/CCC(=O)NCc1ccc(C(F)(F)F)cc1)OC`, the IC50 was over 100 µM.
In the case of `CCCCCCC[C@@H](C/C=C/CCC(=O)N1CCCC1)OC`, the IC50 is reported as over 100 µM.
`CCCCCCC[C@@H](C/C=C/CCC(=O)Nc1ccc(Cl)cc1)OC` gave an IC50 of over 100 µM.

Tested on: SF-295
Assay: Cytotoxicity against Homo sapiens (human) SF295 cells assessed as growth inhibition after 48 hr by trypan blue exclusion assay
Assay type: functional, cell-based
Settings: SF-295, 48 h
`CCCCCCC[C@@H](C/C=C/CCC(=O)NCC(C)C)OC` gave an IC50 of over 100 µM.
For `CCCCCCC[C@@H](C/C=C/CCC(=O)NCc1ccccc1)OC`, the IC50 was over 100 µM.
For `CCCCCCC[C@H](C/C=C/CCC(=O)NCCc1ccccc1)OC` [PHENETHYL(7R,4E)-METHOXYTETRADECENAMIDE], the IC50 was over 100 µM.
`CCCCCCC[C@H](O)C/C=C/CCC(=O)N1CCCC1` showed an IC50 of over 100 µM.
In the case of `CCCCCCC[C@H](C/C=C/CCC(=O)N1CCCCC1)OC`, the IC50 is reported as over 100 µM.
Molecule `CCCCCCC[C@H](C/C=C/CCC(=O)N1CCCC1)OC` has an IC50 of over 100 µM.
In the case of `CCCCCCC[C@@H](C/C=C/CCC(=O)NCc1ccc(C(F)(F)F)cc1)OC`, the IC50 is reported as over 100 µM.
Molecule `CCCCCCC[C@@H](C/C=C/CCC(=O)N1CCCC1)OC` has an IC50 of over 100 µM.
With `CCCCCCC[C@@H](C/C=C/CCC(=O)Nc1ccc(Cl)cc1)OC` the IC50 was over 100 µM.

Tested on: SK-N-SH
Assay: Cytotoxicity against Homo sapiens (human) SK-N-SH cells assessed as growth inhibition after 48 hr by trypan blue exclusion assay
Assay type: functional, cell-based
Settings: not given
Molecule `CCCCCCC[C@@H](C/C=C/CCC(=O)NCC(C)C)OC` has an IC50 of over 100 µM.
For `CCCCCCC[C@@H](C/C=C/CCC(=O)NCc1ccccc1)OC`, the IC50 was over 100 µM.
Work on `CCCCCCC[C@H](C/C=C/CCC(=O)NCCc1ccccc1)OC` [PHENETHYL(7R,4E)-METHOXYTETRADECENAMIDE] yielded an IC50 of 95.8 µM.
Work on `CCCCCCC[C@H](O)C/C=C/CCC(=O)N1CCCC1` yielded an IC50 of 120 µM.
`CCCCCCC[C@H](C/C=C/CCC(=O)N1CCCCC1)OC` showed an IC50 of 118 µM.
`CCCCCCC[C@H](C/C=C/CCC(=O)N1CCCC1)OC` showed an IC50 of over 100 µM.
For `CCCCCCC[C@@H](C/C=C/CCC(=O)NCc1ccc(C(F)(F)F)cc1)OC`, the IC50 was 62.9 µM.
Molecule `CCCCCCC[C@@H](C/C=C/CCC(=O)N1CCCC1)OC` has an IC50 of over 100 µM.
In the case of `CCCCCCC[C@@H](C/C=C/CCC(=O)Nc1ccc(Cl)cc1)OC`, the IC50 is reported as 72.9 µM.

Tested on: not listed separately
Assay: Cytotoxicity against Homo sapiens (human) 502713 cells assessed as growth inhibition after 48 hr by trypan blue exclusion assay
Assay type: functional, cell-based
Settings: Homo sapiens, 502713, 48 h
Molecule `CCCCCCC[C@@H](C/C=C/CCC(=O)NCC(C)C)OC` has an IC50 of over 100 µM.
`CCCCCCC[C@@H](C/C=C/CCC(=O)NCc1ccccc1)OC` showed an IC50 of over 100 µM.
With `CCCCCCC[C@H](C/C=C/CCC(=O)NCCc1ccccc1)OC` [PHENETHYL(7R,4E)-METHOXYTETRADECENAMIDE] the IC50 was over 100 µM.
`CCCCCCC[C@H](O)C/C=C/CCC(=O)N1CCCC1` gave an IC50 of over 100 µM.
`CCCCCCC[C@H](C/C=C/CCC(=O)N1CCCCC1)OC` gave an IC50 of over 100 µM.
`CCCCCCC[C@H](C/C=C/CCC(=O)N1CCCC1)OC` showed an IC50 of over 100 µM.
`CCCCCCC[C@@H](C/C=C/CCC(=O)NCc1ccc(C(F)(F)F)cc1)OC` gave an IC50 of 29.8 µM.
`CCCCCCC[C@@H](C/C=C/CCC(=O)N1CCCC1)OC` gave an IC50 of over 100 µM.
Molecule `CCCCCCC[C@@H](C/C=C/CCC(=O)Nc1ccc(Cl)cc1)OC` has an IC50 of over 100 µM.

Tested on: HOP-62
Assay: Cytotoxicity against Homo sapiens (human) HOP62 cells assessed as growth inhibition after 48 hr by trypan blue exclusion assay
Assay type: functional, cell-based
Settings: HOP-62, 48 h
For `CCCCCCC[C@@H](C/C=C/CCC(=O)NCC(C)C)OC`, the IC50 was over 100 µM.
In the case of `CCCCCCC[C@@H](C/C=C/CCC(=O)NCc1ccccc1)OC`, the IC50 is reported as over 100 µM.
For `CCCCCCC[C@H](C/C=C/CCC(=O)NCCc1ccccc1)OC` [PHENETHYL(7R,4E)-METHOXYTETRADECENAMIDE], the IC50 was over 100 µM.
In the case of `CCCCCCC[C@H](O)C/C=C/CCC(=O)N1CCCC1`, the IC50 is reported as over 100 µM.
`CCCCCCC[C@H](C/C=C/CCC(=O)N1CCCCC1)OC` showed an IC50 of over 100 µM.
For `CCCCCCC[C@H](C/C=C/CCC(=O)N1CCCC1)OC`, the IC50 was over 100 µM.
`CCCCCCC[C@@H](C/C=C/CCC(=O)NCc1ccc(C(F)(F)F)cc1)OC` gave an IC50 of over 100 µM.
`CCCCCCC[C@@H](C/C=C/CCC(=O)N1CCCC1)OC` showed an IC50 of over 100 µM.
For `CCCCCCC[C@@H](C/C=C/CCC(=O)Nc1ccc(Cl)cc1)OC`, the IC50 was over 100 µM.

Tested on: SW-620
Assay: Cytotoxicity against Homo sapiens (human) SW620 cells assessed as growth inhibition after 48 hr by trypan blue exclusion assay
Assay type: functional, cell-based
Settings: SW-620, 48 h
Molecule `CCCCCCC[C@@H](C/C=C/CCC(=O)NCC(C)C)OC` has an IC50 of over 100 µM.
For `CCCCCCC[C@@H](C/C=C/CCC(=O)NCc1ccccc1)OC`, the IC50 was over 100 µM.
Work on `CCCCCCC[C@H](C/C=C/CCC(=O)NCCc1ccccc1)OC` [PHENETHYL(7R,4E)-METHOXYTETRADECENAMIDE] yielded an IC50 of over 100 µM.
`CCCCCCC[C@H](O)C/C=C/CCC(=O)N1CCCC1` showed an IC50 of over 100 µM.
For `CCCCCCC[C@H](C/C=C/CCC(=O)N1CCCCC1)OC`, the IC50 was over 100 µM.
`CCCCCCC[C@H](C/C=C/CCC(=O)N1CCCC1)OC` gave an IC50 of over 100 µM.
For `CCCCCCC[C@@H](C/C=C/CCC(=O)NCc1ccc(C(F)(F)F)cc1)OC`, the IC50 was over 100 µM.
For `CCCCCCC[C@@H](C/C=C/CCC(=O)N1CCCC1)OC`, the IC50 was over 100 µM.
With `CCCCCCC[C@@H](C/C=C/CCC(=O)Nc1ccc(Cl)cc1)OC` the IC50 was over 100 µM.
